Reference: patent US8084221B2, “Method of screening for a drug candidate that increases ATP release from RBCs stimulated via the Gs or Gi pathway” (Saint Louis University, priority 2006, dated 2011)
Entries after “also recorded” stand apart in the source; their conditions may differ.

Key:
[1] = test system: human erythrocytes; test: cAMP concentration in human erythrocytes (EIA); type: cell-based; conditions: for cAMP production / synthesis on incubation with activator: activator of Gs or Gi alone; for Mas7-induced cAMP accumulation in the presence of insulin: MAS7 10 μM, insulin pre-incubation; for cAMP accumulation in response to Gs/Gi activation or reduced O2 tension, in the presence of insulin: insulin at concentrations reported in plasma of humans with prediabetes
Procedure: (§1) Erythrocytes (20% hct) were incubated with Mastoparan 7 (10 μM) or its vehicle in the presence or absence of 1 uM insulin. ATP release from erythrocytes was measured at 5 minute intervals using the luciferan/luciferase assay. In separate studies, erythrocytes (50% hct) were incubated with vehicle, 10 uM cilostazol, 100 μM cilostazol, […], 3 uM insulin, and/or 10 uM Mastoparan 7 for determination of cAMP concentration. At timed intervals, 4 mL of ice cold ethanol containing 1 mM HCl was added to 1 mL of RBC suspension. After centrifugation at 14,000×g at 4° C. for 10 min., the supernatant was dried under vacuum. Samples were resuspended in assay buffer and cAMP concentration was determined in duplicate by EIA.
(§2) Protocol A: Washed erythrocytes are incubated with insulin (0.1 nM-1 μM, Humalog®), or its vehicle (saline) for 30 min [28, 29, 47, 60]. Erythrocytes are incubated with either iloprost (1 μM), isoproterenol (10 μM) (receptor-mediated activators of Gs) or mastoparan 7 (MAS7, 10 μM) (a direct activator of Gi) or their vehicle (saline). After 15 min, cAMP accumulation and ATP release will be determined.
After 30 min, the cells were incubated with either iloprost (1 μM), isoproterenol (10 μM), MAS7 (10 μM) or exposed to reduce O2 tension and cAMP accumulation and ATP release was determined. Control experiments: Identical experiments were performed with the vehicles for the various inhibitors. […] The concentrations chosen for rolipram and sildenafil PDE are those reported to be specific for the PDEs indicated.
Measurement of cAMP: 1 ml of erythrocyte suspension was added to 4 ml of ice cold ethanol containing 1 mM HCl and the mixture was centrifuged at 21,000×g for 10 minutes at 4° C. The supernatant was removed and stored overnight at −20° C. to precipitate remaining proteins. Samples were centrifuged a second time at 3,700×g for 10 minutes at 4° C. The supernatant was removed and dried under vacuum centrifugation. Concentrations of cAMP were determined by EIA.

[2] = test system: human erythrocytes; test: ATP release from human erythrocytes (luciferin-luciferase assay); type: cell-based; conditions: for ATP release on incubation with activator: activator of Gs or Gi alone; for Mas7-induced ATP release in the presence of insulin: MAS7 10 μM, insulin 1 μM pre-incubation; for ATP release in response to Gs/Gi activation or reduced O2 tension, in the presence of insulin: insulin at concentrations reported in plasma of humans with prediabetes
Procedure: as §1, §2
Protocol C: To determine effects of direct activation of adenylyl cyclase and active cAMP analogs on ATP release from erythrocytes in the presence of insulin, washed erythrocytes are incubated with insulin (0.1 nM-1 μM) or its vehicle (saline). After 30 min, the cells are incubated with either the non-selective activator of adenylyl cyclase (AC) activity, forskolin (1 to 10 μM), or one of two active cAMP analogs that are resistant to degradation, SpcAMP (10 to 100 μM) or 8-bromo-cAMP (10 to 100 μM). ATP release will be measured at 5, 10 and 15 min after addition of forskolin or the active cAMP analogs. Controls: To ensure the effects of forskolin or the cAMP analogs are not due to effects of vehicle or time, identical experiments are conducted using their vehicles, N,Ndimethylformamide (DMF) or saline, respectively, in lieu of the active agent. Total intracellular ATP and free hemoglobin, a measurement of erythrocyte lysis, is determined.
(§3) Measurement of ATP: ATP was measured using the luciferin-luciferase assay. A 200 μL sample of an erythrocyte suspension was injected into a cuvette containing 100 μL of 10 mg/ml crude firefly tail extract and 100 μL of a 0.5 mg/ml solution of D-luciferin. The light emitted from the reaction of ATP with the crude firefly tail extract was measured using a luminometer designed to detect a wavelength of 565 nm. The peak light emitted was compared to an ATP standard curve generated on the day of the experiment.
Exposure of Erythrocytes to Reduced Oxygen Tension: Washed erythrocytes were diluted in Krebs buffer containing bicarbonate (4.7 KCl, 2.0 mM CaCl2, 140.5 mM NaCl, 1.2 mM MgSO4) and equilibrated for 30 minutes in a tonometer (15% O2, 5% CO2, balance N2) (normoxia). Erythrocytes were then exposed to hypoxia by changing the equilibrating gas to 5% O2, 5% CO2, balance N2. ATP released from the erythrocytes as well as pH and blood gas tensions were determined at 5, 10 and 15 min after exposure to the various gas tensions. In separate studies, samples were collected into acidified ethanol for cAMP measurement.

[3] = test system: PDE4; conditions: reported in reference [54]; cited from earlier work
[4] = test system: RBCs derived from humans having type 2 diabetes; test: MAS7-induced ATP release by RBCs from humans with type 2 diabetes; type: cell-based, human; conditions: type 2 diabetic RBCs, stimulation via the Gi pathway (MAS7), compared with RBCs of healthy individuals, FIG. 7
Procedure: as §1, §3

[5] = test system: human erythrocytes; test: Total intracellular ATP of erythrocytes; type: cell-based; conditions: human erythrocytes pre-incubated with insulin 1 μM
Procedure: Measurement of Total Intracellular ATP: A known number of erythrocytes was lysed in distilled water at room temperature. ATP in the lysate, diluted 8,000 fold, was measured using ATP assay and the values normalized to ATP concentration per erythrocyte.

COc1ccc(C2CNC(=O)C2)cc1OC1CCCC1 (stereo not drawn) [rolipram, reference compound]
iloprost-induced cAMP accumulation with rolipram ([1]; rolipram 30 μM, n=6): no effect

Mastoparan 7 [reference compound]
ATP release on incubation with activator [2]: ATP release
ATP release on incubation with activator ([2]; listed as MAS7): stimulate
cAMP production / synthesis on incubation with activator [1]: increased cAMP production
cAMP production / synthesis on incubation with activator ([1]; listed as MAS7): stimulate

CC(C)NCC(O)c1ccc(O)c(O)c1 (stereo not drawn) [isoproterenol, reference compound]
ATP release on incubation with activator [2]: stimulate
cAMP production / synthesis on incubation with activator [1]: stimulate

O=C1CCc2cc(OCCCCc3nnnn3C3CCCCC3)ccc2N1 [cilostazol]
iloprost-induced cAMP accumulation after cilostazol pre-treatment ([1]; FIG. 11): concentration-dependent increases
basal cAMP levels ([1]; in the presence of cilostazol): increased
concentrations inhibiting PDE4 activity relative to those used here [3]: ten-fold greater
MAS7-induced ATP release by diabetic RBCs treated with cilostazol [4]: normal levels of ATP
MAS7-induced ATP release by diabetic RBCs treated with cilostazol ([4]; listed as CILO): not significantly different from the levels released by RBCs of healthy individuals

insulin: insulin incubated with erythrocytes; Humalog or regular human insulin in the protocols
total ATP content [5]: absence of changes
Mas7-induced ATP release in the presence of insulin ([2]; FIG. 9): inhibit; also recorded: decline; also recorded: decreases; also recorded: reduces; also recorded: attenuated
Mas7-induced ATP release in the presence of insulin ([2]; FIG. 9, listed as Insulin): reduces
ATP release in response to Gs/Gi activation or reduced O2 tension, in the presence of insulin [2]: inhibits; also recorded: attenuates
ATP release in response to Gs/Gi activation or reduced O2 tension, in the presence of insulin ([2]; listed as Insulin): attenuates
ATP release in response to active cAMP analogs resistant to hydrolysis by PDEs, in the presence of insulin ([2]; insulin pretreatment): no effect
Mas7-induced cAMP accumulation in the presence of insulin ([1]; FIG. 8): greater at lower (nM) insulin concentrations; also recorded: decline; also recorded: decreases; also recorded: reduces; also recorded: inhibition
Mas7-induced cAMP accumulation in the presence of insulin ([1]; FIG. 8, listed as Insulin): reduces
cAMP accumulation in response to Gs/Gi activation or reduced O2 tension, in the presence of insulin [1]: inhibited; also recorded: limit; also recorded: decreases
cAMP accumulation in response to Gs/Gi activation or reduced O2 tension, in the presence of insulin ([1]; listed as Insulin): decreases

CC#CCC(C)[C@H](O)/C=C/[C@@H]1[C@H]2C/C(=C/CCCC(=O)O)C[C@H]2C[C@H]1O (stereo partly drawn) [iloprost, reference compound]
ATP release on incubation with activator [2]: stimulate
cAMP production / synthesis on incubation with activator [1]: stimulate
